For data set [1], the system named is fibroblast growth factor 19 (FGF19) secretion in human ileum. Briefly: Human ileum APECCS (FGF19 secretion). It counts as cell-based. The note with it: for EC50: Fibroblast; for Activity, %: relative to GW4064.
The target of data set [2] is human Farnesoid X receptor ligand-binding domain/Gal4 DNA binding domain chimera (Homo sapiens (Human), UniProt Q96RI1). As to the kind of experiment: Cell-based FXR beta-lactamase reporter assay (FXR-UAS-bla HEK 293T cells). The note with it: for % Efficacy: extent of activation relative to GW4064; for Emax: HEK-293T, read-out: % Efficacy. An outline of the steps: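 Stable FXR-UAS-bla HEK 293T cells in phenol red-free DMEM with 2% charcoal-stripped FBS were exposed to 3-fold serial dilutions of compound. Beta-lactamase reporter activity was read by CCF4 FRET loss, exciting at 409 nm with blue emission at 447 nm. The FRET change versus concentration was fit to a 3-parameter logistic equation.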
Sequence of human Farnesoid X receptor ligand-binding domain/Gal4 DNA binding domain chimera (Q96RI1 262-486, change not shown): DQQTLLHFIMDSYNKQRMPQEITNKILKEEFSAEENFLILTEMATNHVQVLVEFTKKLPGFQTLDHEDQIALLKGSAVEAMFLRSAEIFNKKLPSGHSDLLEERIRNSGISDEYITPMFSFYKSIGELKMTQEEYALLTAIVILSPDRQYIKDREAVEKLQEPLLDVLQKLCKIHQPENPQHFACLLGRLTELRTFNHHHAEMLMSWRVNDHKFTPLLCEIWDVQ

Another data set relates to FXR target genes. As to the kind of experiment: Single-dose FXR target gene expression in mice fed a standard diet. Format: in vivo, C57BL/6 mice. The note with it: single dose 30 mg/kg. An excerpt: (§1) Total RNA from mouse tissues was isolated and used for library preparation.
Another data set is described as follows: Western diet study. Format: in vivo, C57BL/6 mice. The following applies: male, C57BL/6, mouse, serum; 30 mg/kg q.d., after 2 weeks of treatment, 2 hours after the last dose; read-out: serum FXR agonist concentration. On the procedure: (§2) Six-week-old C57BL/6 male mice were fed a Western diet (WD) (62% fat/0.2% cholesterol). […] An additional control group (lean) was fed a standard rodent chow throughout the study. Body weight measurements and serum samples (tail bleed) were taken weekly. After 6 weeks of treatment, all animals were sacrificed and hepatosteatosis-related endpoints and other liver markers were measured.
as §1

Data set [3] has as its system C57BL/6 male mice fed a Western diet. As to the kind of experiment: Western diet study. Format: in vivo, C57BL/6 mice. On the procedure: as §2, §1
Data set [4] addresses ligand binding domain of human FXR (Homo sapiens (Human), UniProt Q96RI1). As to the kind of experiment: FXR ligand binding assay (LanthaScreen FRET).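 On all read-outs here: TR-FRET coactivator recruitment: ligand-induced binding of fluorescein-labelled SRC2-2 peptide to GST-tagged FXR LBD detected via Tb anti-GST antibody, serial compound dilutions, 3-parameter logistic fit.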 Details: Activity, %: concentration or dose not given beside the values. The following applies: for % Efficacy: extent of activation relative to GW4064; for Emax: read-out: % Efficacy.
[5] abbreviates: Western diet, 6 weeks of treatment.
Where [6] appears, read: Western diet, 6 weeks, I-2 30 mg/kg q.d. or b.i.d., Px-102 30 mg/kg q.d., FGF15-AAV single IV dose.
Setting [7] is: cellular FXR beta-lactamase reporter assay, -log EC50.
The mark [8] stands for this setting: cellular FXR beta-lactamase reporter assay.
[9] abbreviates: FXR ligand binding assay, -log EC50.
Setting [10] is: cellular FXR beta-lactamase reporter assay, -log EC50, read-out: FXR pEC50 (converted).

Molecules are shown by their SMILES. Read-outs that look alike come from different tables or passages of the source.

The results in this text go back to patent US11091482B2, “Isoxazolyl-carbonyloxy azabicyclo[3.2.1]octanyl compounds as FXR activators” (ARDELYX, INC., priority 2016, dated 2021).

Sequence of ligand binding domain of human FXR (Q96RI1 262-486): as the sequence (Q96RI1 262-486, change not shown) above

Regarding `CC(C)c1onc(-c2c(Cl)cccc2Cl)c1COc1ccc(/C=C/c2cccc(C(=O)O)c2)c(Cl)c1` [GW4064], in data set [1], the EC50 is 316 nM and the “Activity, %” value worked out at 100 ± 0%.
As for `O=C(O)c1ccc([C@H]2C[C@@H]2c2ccc(OCc3c(-c4c(Cl)cccc4Cl)noc3C3CC3)cc2Cl)cc1` [Px-102], the “Activity, %” value in data set [2] (Human FXR Cell (Gal4), relative to GW4064) worked out at 108%. For the same molecule, the EC50 in data set [2] (Human FXR Cell (Gal4), read-out: pEC50 (converted)) was 158 nM. The “expression of selected FXR target genes in the liver” value with FXR target genes is on record as “activated”. Further, the “expression of FXR target genes, including FGF15, in the ileum” value in the data set on FXR target genes (6 h after dosing) is “activated”. Besides, the concentration at 2 h in “Western diet study” was found to be 475 ng/mL. Besides, in data set [3] (setting [5]), the body weight result is reported as “did not affect” and the liver weight entry is reported as “did not affect”. In data set [3] (setting [6]), the liver cholesterol result is given as “normalized”, the liver triglycerides result is on record as “normalized”, the macrovesicular steatosis result is “reduced” and the serum cholesterol entry was “reduced”. The Cyp7a1 gene expression result in data set [3] (liver, Western diet) was “downregulated”. The “serum FGF15 concentration” value in data set [3] (mice fed a WD) is recorded as “further increased”. Also, in data set [1], the EC50 was 331 nM and the “Activity, %” value was found to be 96.5 ± 25%. Moreover, in data set [4] (Human FXR Binding (FRET), relative to GW4064), the “Activity, %” value is recorded as 90 ± 15%. In addition, in data set [4] (Human FXR Binding (FRET), value ± spread, read-out: pEC50 (converted)), the EC50 is 10 nM.
Take `O=C(O)c1cc(F)c2nc(N3[C@@H]4CC[C@H]3C[C@@H](OC(=O)c3c(-c5c(Cl)cccc5OC(F)F)noc3C3CC3)C4)sc2c1` [Compound I-15, 2-[(1R,3R,5S)-3-{3-[2-chloro-6-(difluoromethoxy)phenyl]-5-cyclopropyl-1,2-oxazole-4-carbonyloxy}-8-azabicyclo[3.2.1]octan-8-yl]-4-fluoro-1,3-benzothiazole-6-carboxylic Acid]: the “FXR pEC50” value in data set [2] (setting [7]) and in data set [4] (setting [9]) was 7.4 each time. In addition, the “% Efficacy” value in data set [2] (setting [8]) turned out to be 108%; in data set [4] (FXR ligand binding assay), 71%.
In the case of `O=C(O)c1cc(F)c2nc(N3[C@@H]4CC[C@H]3C[C@@H](OC(=O)c3c(C56CCC(CC5)CC6)noc3C3CC3)C4)sc2c1` [Compound I-20, 2-[(1R,3R,5S)-3-(3-{Bicyclo[2.2.2]octan-1-yl}-5-cyclopropyl-1,2-oxazole-4-carbonyloxy)-8-azabicyclo[3.2.1]octan-8-yl]-4-fluoro-1,3-benzothiazole-6-carboxylic Acid], the “FXR pEC50” value is recorded as 6.6 in data set [2] (setting [7]) and over 4.5 in data set [4] (setting [9]). Moreover, the “% Efficacy” value in data set [2] (setting [8]) is reported as 22%.
Turning to `N#Cc1ccc(N2[C@@H]3CC[C@H]2C[C@@H](OC(=O)c2c(-c4c(Cl)cccc4Cl)noc2C2CC2)C3)cc1O` [Compound I-53, (1R,3R,5S)-8-(4-cyano-3-hydroxyphenyl)-8-azabicyclo[3.2.1]octan-3-yl 5-cyclopropyl-3-(2,6-dichlorophenyl)-1,2-oxazole-4-carboxylate], the Emax worked out at 81% in data set [2] and 58% in data set [4]. The EC50 in data set [2] (setting [10]) was 251 nM.
Take `O=C(O)c1cc(C2CC2)c2nc(N3[C@@H]4CC[C@H]3C[C@@H](OC(=O)c3c(-c5c(Cl)cccc5Cl)noc3C3CC3)C4)sc2c1` [Compound I-12, 2-[(1R,3R,5S)-3-[5-cyclopropyl-3-(2,6-dichlorophenyl)-1,2-oxazole-4-carbonyloxy]-8-azabicyclo[3.2.1]octan-8-yl]-4-(cyclopropyl)-1,3-benzothiazole-6-carboxylic Acid]: the Emax in data set [2] was determined as 112%; in data set [4], 125%. Moreover, the EC50 in data set [2] (setting [10]) was 7.94 nM.
With `O=C(O)c1ccc(N2[C@@H]3CC[C@H]2C[C@@H](OC(=O)c2c(-c4c(Cl)cccc4OC(F)F)noc2C2CC2)C3)c(F)c1` [Compound I-43, 4-[(1R,3R,5S)-3-{3-[2-chloro-6-(difluoromethoxy)phenyl]-5-cyclopropyl-1,2-oxazole-4-carbonyloxy}-8-azabicyclo[3.2.1]octan-8-yl]-3-fluorobenzoic Acid], the Emax was found to be 108% in data set [2] and 72% in data set [4]. Besides, the EC50 was 39.8 nM in data set [2] (setting [10]) and 50.1 nM in data set [4] (FXR ligand binding assay, -log EC50, read-out: FXR pEC50 (converted)).
For the molecule `O=C(O)c1cc(F)c2nc(N3[C@@H]4CC[C@H]3C[C@@H](OC(=O)c3c(-c5c(Cl)cccc5Cl)noc3C3CCC3)C4)sc2c1` [Compound I-24, 2-[(1R,3R,5S)-3-[5-cyclobutyl-3-(2,6-dichlorophenyl)-1,2-oxazole-4-carbonyloxy]-8-azabicyclo[3.2.1]octan-8-yl]-4-fluoro-1,3-benzothiazole-6-carboxylic Acid], the “FXR pEC50” value is given as 7.5 in data set [2] (setting [7]) and 7.9 in data set [4] (setting [9]). Besides, the “% Efficacy” value in data set [2] (setting [8]) was 98%; in data set [4] (FXR ligand binding assay), 64%.
For `O=C(O)c1cc(F)cc(S(=O)(=O)N2[C@@H]3CC[C@H]2C[C@@H](OC(=O)c2c(-c4c(Cl)cccc4Cl)noc2C2CC2)C3)c1` [Compound I-56, 3-{[(1R,3R,5S)-3-[5-cyclopropyl-3-(2,6-dichlorophenyl)-1,2-oxazole-4-carbonyloxy]-8-azabicyclo[3.2.1]octan-8-yl]sulfonyl}-5-fluorobenzoic Acid], the Emax in data set [2] was determined as 78%; in data set [4], 56%. Further, the EC50 in data set [2] (setting [10]) was 631 nM.
Take `CC(C)(C)c1onc(-c2c(Cl)cccc2Cl)c1C(=O)OC1C[C@H]2CC[C@@H](C1)N2c1nc2c(F)cc(C(=O)O)cc2s1` (single isomer, unassigned) [Compound I-25]: the “FXR pEC50” value was determined as 7.6 in data set [2] (setting [7]) and 7.2 in data set [4] (setting [9]).
On to `O=C(O)c1ccc(N2[C@@H]3CC[C@H]2C[C@@H](OC(=O)c2c(-c4c(Cl)cccc4Cl)noc2C2CC2)C3)cc1C(F)(F)F` [Compound I-37, 4-[(1R,3R,5S)-3-[5-cyclopropyl-3-(2,6-dichlorophenyl)-1,2-oxazole-4-carbonyloxy]-8-azabicyclo[3.2.1]octan-8-yl]-2-(trifluoromethyl)benzoic acid], for which the Emax was 93% in data set [2] and 50% in data set [4]. In data set [2] (setting [10]), the EC50 is 100 nM. The “FXR pEC50” value in data set [4] (setting [9]) worked out at 7.7.
On to `CCCS(=O)(=O)NC(=O)c1ccc(N2[C@@H]3CC[C@H]2C[C@@H](OC(=O)c2c(-c4c(Cl)cccc4Cl)noc2C2CC2)C3)cc1` [Compound I-45, (1R,3R,5S)-8-{4-[(propane-1-sulfonyl)carbamoyl]phenyl}-8-azabicyclo[3.2.1]octan-3-yl 5-cyclopropyl-3-(2,6-dichlorophenyl)-1,2-oxazole-4-carboxylate], for which the “FXR pEC50” value in data set [2] (setting [7]) was found to be 8.6; in data set [4] (setting [9]), 8.3. The “% Efficacy” value in data set [4] (FXR ligand binding assay) is on record as 130%.
For `O=C(O)c1cc(OC(F)(F)F)c2nc(N3[C@@H]4CC[C@H]3C[C@@H](OC(=O)c3c(C56CCC(CC5)CC6)noc3C3CC3)C4)sc2c1` [Compound I-57, 2-[(1R,3R,5S)-3-(3-{bicyclo[2.2.2]octan-1-yl}-5-cyclopropyl-1,2-oxazole-4-carbonyloxy)-8-azabicyclo[3.2.1]octan-8-yl]-4-(trifluoromethoxy)-1,3-benzothiazole-6-carboxylic Acid], the figures for the Emax in data set [2] and in data set [4] were 33% and 26%, respectively. Moreover, in data set [2] (setting [10]), the EC50 was 398 nM.
Regarding `CC[C@H]1[C@@H](O)[C@@H]2[C@H](CC[C@]3(C)[C@@H]([C@H](C)CCC(=O)O)CC[C@@H]23)[C@@]2(C)CC[C@@H](O)C[C@@H]12` [OCA, Obeticholic acid], in data set [1], the EC50 was 501 nM and the “Activity, %” value amounted to 82.6 ± 19%.
